Measured values from publication PMC8752837, “Structural basis of BAK activation in mitochondrial apoptosis initiation” (Nature Communications, 2022).

Experiments:
V74A(1) BAK = assay: Liposome permeabilization assay: BH3 peptide activation of V74A(1) BAK receptor; format: biochemical, human; conditions: Suppl. Figs. 3e, 4d
Protocol: We performed liposome permeabilization assays as previously described[43]-[46]. […] We mixed the lipid film in ANTS/DPX solution by vortexing and sonication (~15 min) followed by extrusion through polycarbonate membrane of 2 μm pore size (Avanti Polar lipids) to generate homogenous large unilamellar vesicles (LUVs). We separated LUVs from free ANTS/DPX by S500 size exclusion chromatography and stored them at 4 °C in the dark. We prepared peptide and protein dilutions in 96-well black flat bottom plates (Costar) kept on ice. […] We quantified liposome permabilization by integrating area under curve (AUC) of normalized traces based on the Simpson's equation, and analyzed that data in Excel and GraphPad Prism. AUC measurements reflect the kinetic and extent of liposome permeabilization and provide quantitative means for comparison between different experimental conditions (e.g., BAK mutants with gross or partial variation in activity). Variability in permeabilization of different liposomes is common and our analyses compare among conditions investigated with the same liposomes. Although the absolute permeabilization values may differ, the trends for the same conditions are always very similar between different liposomes.

I81R(3) BAK = target: T1, I81R(3) BAK (Homo sapiens, UniProt Q16611, I81R); assay: Liposome permeabilization assay: BH3 peptide activation of I81R(3) BAK receptor; format: biochemical; conditions: 50 nM mutant BAK; Suppl. Fig. 4f
T1 construct: C-terminus truncated recombinant human BAK containing C-terminal 6× histidine tag (MEAS-BAK); made in house; host or cells: E. coli T7 Express pLac I/Y
T1 sequence (Q16611 1-186 I81R limits assumed): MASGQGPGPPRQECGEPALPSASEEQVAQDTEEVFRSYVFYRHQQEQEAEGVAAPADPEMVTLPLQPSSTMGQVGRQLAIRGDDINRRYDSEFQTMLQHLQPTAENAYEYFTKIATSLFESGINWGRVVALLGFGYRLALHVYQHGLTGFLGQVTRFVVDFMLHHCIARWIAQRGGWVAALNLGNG
Protocol: We next compared activation of mutant BAK receptors by WT BID BH3 and WT BAK BH3 peptide ligands. At concentrations above 1 µM, both peptide ligands would activate WT or V74A(1) BAK (Supplementary Figs. 3e, 4d, e, and Supplementary Table 1).
We performed liposome permeabilization assays as previously described[43]–[46]. […] (nickel salt) [DGS NTA(Ni), 2.5 μM final concentration in each assay] (Avanti Polar Lipids). We prepared 12.5 mM fluorophore; 8-aminonaphthalene-1, 3, 6-trisulfonic acid, disodium salt (ANTS) and 45 mM quencher; p-xylene-bis-pyridiniumbromide (DPX) in LUV buffer (10 mM HEPES pH 6.8, 200 mM KCl and 5 mM MgCl2). We mixed the lipid film in ANTS/DPX solution by vortexing and sonication (~15 min) followed by extrusion through polycarbonate membrane of 2 μm pore size (Avanti Polar lipids) to generate homogenous large unilamellar vesicles (LUVs). We separated LUVs from free ANTS/DPX by S500 size exclusion chromatography and stored them at 4 °C in the dark. We prepared peptide and protein dilutions in 96-well black flat bottom plates (Costar) kept on ice. ANTS release from permeabilized liposomes causes an increase in fluorescence, which we monitored at 37 °C for 90 min using a CLARIOSTAR microplate reader (BMG Labtech) set at excitation and emission wavelengths of 360 and 530 nm, respectively. We normalized the data relative to maximum and minimum fluorescence induced by 3% CHAPS and buffer controls, respectively. We quantified liposome permabilization by integrating area under curve (AUC) of normalized traces based on the Simpson’s equation, and analyzed that data in Excel and GraphPad Prism. AUC measurements reflect the kinetic and extent of liposome permeabilization and provide quantitative means for comparison between different experimental conditions (e.g., BAK mutants with gross or partial variation in activity). Variability in permeabilization of different liposomes is common and our analyses compare among conditions investigated with the same liposomes. […]

| Compound | peptide concentration at which ligands activate V74A(1) BAK (V74A(1) BAK) | liposome permeabilization by 50 nM I81R(3) BAK receptor (I81R(3) BAK) |
| --- | --- | --- |
| CC[C@H](C)[C@H](NC(=O)[C@H](C)NC(=O)[C@H](CC(C)C)NC(=O)[C@H](CCC(N)=O)NC(=O)[C@H](CCCNC(=N)N)NC(=O)CNC(=O)[C@@H](NC(=O)[C@H](CCC(N)=O)NC(=O)CNC(=O)[C@H](CCSC)NC(=O)[C@@H](NC(=O)[C@H](CO)NC(=O)[C@H](CO)NC(C)=O)[C@@H](C)O)C(C)C)C(=O)N[C@H](C(=O)NCC(=O)N[C@@H](CC(=O)O)C(=O)N[C@@H](CC(=O)O)C(=O)N[C@H](C(=O)N[C@@H](CC(N)=O)C(=O)N[C@@H](CCCNC(=N)N)C(=O)N[C@@H](CCCNC(=N)N)C(=O)N[C@@H](Cc1ccc(O)cc1)C(N)=O)[C@@H](C)CC)[C@@H](C)CC [WT BAK BH3] | above 1 µM | neither peptide ligands could promote liposome permeabilization |
| CC[C@H](C)[C@H](NC(=O)[C@H](CO)NC(=O)[C@H](CCCNC(=N)N)NC(=O)[C@H](CC(=O)O)NC(=O)[C@H](CCSC)NC(=O)[C@H](CO)NC(=O)[C@H](CC(=O)O)NC(=O)CNC(=O)[C@@H](NC(=O)[C@H](CCC(N)=O)NC(=O)[C@H](C)NC(=O)[C@H](CC(C)C)NC(=O)[C@H](Cc1c[nH]cn1)NC(=O)[C@H](CCCNC(=N)N)NC(=O)[C@H](C)NC(=O)[C@@H](NC(=O)[C@H](CC(N)=O)NC(=O)[C@H](CCCNC(=N)N)NC(=O)[C@@H](NC(=O)[C@@H](NC(=O)[C@H](CC(=O)O)NC(=O)[C@H](CCC(=O)O)NC(C)=O)[C@@H](C)CC)[C@@H](C)CC)[C@@H](C)CC)C(C)C)C(N)=O [WT BID BH3, reference compound] | above 1 µM | neither peptide ligands could promote liposome permeabilization |
